One test concerns Nedd4. Kind of test: In vitro autoubiquitination of HECT E3 Nedd4. The test is classed as biochemical. The protocol: It was then evaluated whether 4-[4-(5-nitro-furan-2-ylmethylene)-3,5-dioxo-pyrazolidin-1-yl]-benzoic acid methyl acid blocks autoubiquitination of both RING finger E3s (Mdm2) and HECT E3s (Nedd4) in vitro.
5 pmole per experimental point of bacterially expressed GST-Mdm2 (or GST-Nedd) is coupled to glutathione Sepharose (GS) for 30 minutes at room temperature with tumbling, followed by 3× wash with 50 mM Tris pH 7.5. Following this, 20 μl of 1× buffer is added (40 μl 10× reaction buffer*, 40 μl 10× PCK**, 320 μl dH2O). The test compound in DMSO is then added to the desired concentration with an equal volume of DMSO used as a control. Samples are incubated with shaking for 1 hr at 23° C. To carry out the reaction, a pre-made cocktail of Rabbit E1 (Calbiochem #6620700)/UbCH5B/^32P Ub cocktail (1 μl/0.5 μl/1 μl) is added followed by 15 minutes shaking at 30° C. The reaction is terminated by addition of 8 μl 4× reducing SDS-PAGE loading buffer. After dissociating proteins from the beads at 100° C. for 2 minutes, samples are resolved on 6% PAGE followed by exposure of the dried gel to phosphor screen. Note: ^32P Ub is derived from GST-Ub that has been engineered to include a PKA phosphorylation site. This fusion protein is purified on glutathione Sepharose, phosphorylated, following this, the ^32P Ub ubiquitin is cleaved and purified away from the thrombin.

A further test concerns IκBα. As to the kind of experiment: TNFα-induced IκBα degradation in cells. The test is classed as cell-based.
The subject of a further test is cyclin E. As to the kind of experiment: Degradation of in vitro translated cyclin E in S-100 cytosolic extract. It is filed as biochemical. The text has this:
Cytosolic extracts from cells (S-100) contain all the components for ubiquitination and proteasomal degradation. To further evaluate 4-[4-(5-nitro-furan-2-ylmethylene)-3,5-dioxo-pyrazolidin-1-yl]-benzoic acid methyl acid, we made use of in vitro translated cyclin E, which is degraded in S-100 in a time-dependent manner (FIG. 3, upper panel, lanes 1-4).

Structures are written as SMILES. Where a SMILES comes first, the peptide text is derived from it. [ ]: non-standard residue; d: D form. The star is where a group is joined. Nle = CCCC[C@H](N)C(=O)O; Cbz = O=C(OCc1ccccc1)*

The results in this text go back to patent publication US8242160B2, “Inhibitors of ubiquitin E1” (The United States of America, as represented by the …, priority 2005, dated 2012).

Take `O=c1nc2n(-c3cccc(Cl)c3)c3ccc([N+](=O)[O-])cc3cc-2c(=O)[nH]1` [98CO7, 10-(-3-chloro-phenyl)-7-nitro-10H-pyrimido[4,5-b]quinoline-2,4-dione, reference compound]: the “autoubiquitination of Nedd4” value in the test on Nedd4 is “only has very moderate effects”.

Regarding `CCCC[C@@H](C=O)NC(=O)[C@H](CC(C)C)NC(=O)[C@H](CC(C)C)NC(C)=O` [ALLN, reference compound] (Ac-Leu-Leu-[Nle]-aldehyde), the “TNFα-induced IκBα degradation” value with IκBα is on record as “prevents TNFα-induced IκBα degradation”.

Regarding `CC(C)C[C@@H](C=O)NC(=O)[C@H](CC(C)C)NC(=O)[C@H](CC(C)C)NC(=O)OCc1ccccc1` [MG132, reference compound] (Cbz-Leu-Leu-Leu-aldehyde), the “cyclin E degradation in S-100” value in the test with cyclin E (no exogenous E1) is reported as “block cyclin E degradation”. Also, the “cyclin E degradation in S-100 after addition of purified exogenous E1” value with cyclin E (purified exogenous E1 added to the reaction mixture) is given as “unable to overcome the block in cyclin E degradation”.
